Results reported in US11213511B2, “Composition for preventing or treating SARS coronavirus 2 infection disease” (priority 2020, dated 2022).
Values joined by “and” are separate entries in the source; they are usually repeats but may differ in a detail not shown here. Equal values may be shown once. Read-outs that look alike come from different tables or passages of the source.

Key:
[1] = system: severe acute respiratory syndrome coronavirus 2; parameters: species or system Syrian Hamster; conditions: hamster, in vivo
SARS CoV-2 (NCCP-43326) [2] = type: cell-based
SARS CoV-2 (NCCP-43326) [3] = assay: Observation of cell morphology according to medicament treatment; type: cell-based; conditions: 10 to 20 μM, VERO cell, FIG. 3
SARS-CoV-2 3CL protease = SARS-CoV-2 3CL protease (Severe acute respiratory syndrome coronavirus 2, UniProt P0DTD1); assay: biochemical; conditions: for inhibition at 30 µM: read-out: activity of 3CL protease inhibited
[4] = target: T1, ACE2 and SARS-CoV-2 Spike S1 protein binding (UniProt P0DTC2+Q9BYF1); assay: biochemical
T1 construct: Spike S1, Fc fusion, Avi-tag, Biotin Labeled (SARS-CoV-2) (BPS Bioscience, 100679); Fc fusion; Avi-tag (biotin labeled); His-Tag (Eu-labeled); purchased BPS Bioscience 100705 (ACE2); 100679 (Spike S1)
T1 sequence (Q9BYF1 18-740, one chain of several): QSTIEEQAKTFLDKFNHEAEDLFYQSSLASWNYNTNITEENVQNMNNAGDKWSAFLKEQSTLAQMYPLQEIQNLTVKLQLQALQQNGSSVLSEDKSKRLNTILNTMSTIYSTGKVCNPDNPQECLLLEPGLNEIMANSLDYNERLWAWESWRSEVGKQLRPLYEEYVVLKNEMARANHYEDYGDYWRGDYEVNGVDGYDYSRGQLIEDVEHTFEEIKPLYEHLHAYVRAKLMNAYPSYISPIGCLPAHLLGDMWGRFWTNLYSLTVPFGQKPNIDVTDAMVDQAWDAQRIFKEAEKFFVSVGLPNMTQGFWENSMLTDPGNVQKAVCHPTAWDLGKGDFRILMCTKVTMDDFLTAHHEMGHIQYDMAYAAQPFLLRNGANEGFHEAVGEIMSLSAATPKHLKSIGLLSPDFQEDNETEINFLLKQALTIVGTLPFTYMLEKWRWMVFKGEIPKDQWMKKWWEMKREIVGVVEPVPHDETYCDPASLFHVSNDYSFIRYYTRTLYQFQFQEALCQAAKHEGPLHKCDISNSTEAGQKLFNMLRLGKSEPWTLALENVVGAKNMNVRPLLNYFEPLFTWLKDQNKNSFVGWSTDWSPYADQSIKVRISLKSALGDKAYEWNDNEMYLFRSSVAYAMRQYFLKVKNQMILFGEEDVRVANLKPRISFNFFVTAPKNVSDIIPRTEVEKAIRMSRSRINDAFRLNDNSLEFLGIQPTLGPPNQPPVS

[5] = system: severe acute respiratory syndrome coronavirus 2; assay: Medicament efficacy of Sulfinpyrazone in SARS coronavirus 2 infected animal model (Example 7); type: in vivo, Syrian Hamster; conditions: 50 MPK (50 mg/kg/day), PO twice daily, 4 days of continuous administration, vs virus alone infected group
VERO cell = conditions: for Viability: 72 hours, MTT; for cell survival: 10 to 20 μM

Compound | CPE Reduction (%) (SARS CoV-2 (NCCP-43326) [2]) | change in cell morphology of virus-infected cells (SARS CoV-2 (NCCP-43326) [3]) | activity at 0.001 µM (SARS-CoV-2 3CL protease) | activity at 0.003 µM (SARS-CoV-2 3CL protease) | activity at 0.01 µM (SARS-CoV-2 3CL protease) | activity at 0.03 µM (SARS-CoV-2 3CL protease) | activity at 0.1 µM (SARS-CoV-2 3CL protease) | activity at 0.3 µM (SARS-CoV-2 3CL protease) | activity at 1 µM (SARS-CoV-2 3CL protease) | activity at 3 µM (SARS-CoV-2 3CL protease) | activity at 10 µM (SARS-CoV-2 3CL protease) | activity at 30 µM (SARS-CoV-2 3CL protease) | % Activity (SARS-CoV-2 3CL protease; 0.003 µM) | % Activity (SARS-CoV-2 3CL protease; 0.01 µM) | % Activity (SARS-CoV-2 3CL protease; 0.3 µM) | % Activity (SARS-CoV-2 3CL protease; 3 µM) | % Activity (SARS-CoV-2 3CL protease; 10 µM) | % Activity (SARS-CoV-2 3CL protease; 30 µM) | inhibition at 30 µM (SARS-CoV-2 3CL protease) | activity at 0.002 µM [4] | further results
CCC(CC)COC(=O)[C@H](C)N[P@](=O)(OC[C@H]1O[C@@](C#N)(c2ccc3c(N)ncnn23)[C@H](O)[C@@H]1O)Oc1ccccc1 [Remdesivir] | – | – | – | – | – | – | – | – | – | – | – | – | – | – | – | – | – | – | – | – | gross cure rate [1]: 44.3%
O=C1C(CC[S+]([O-])c2ccccc2)C(=O)N(c2ccccc2)N1c1ccccc1 (racemic) [Sulfinpyrazone, 1,2-diphenyl-4-[2-(phenylsulfinyl)ethyl]pyrazolidine-3,5-dione] | 33.1 ± 7.0% and 40.7 ± 8.0% | morphology change was small | 96% | 104% | 100% | 103% | 103% | 102% | 99% | 92% | 90% | 82% | 101% | 101% | 94% | 95% | 95% | 80% | ~20% | 96% | % Activity (SARS-CoV-2 3CL protease; 0.001 µM): 101%; % Activity (SARS-CoV-2 3CL protease; 1 µM): 98%; TR-FRET ratio [4]: 0.96 and 0.97 and 0.95 and 0.93 and 0.94; activity at 0.005 µM [4]: 97%; activity at 0.014 µM [4]: 100%; activity at 0.041 µM [4]: 98%; activity at 0.123 µM [4]: 100%; activity at 0.37 µM [4]: 99%; activity at 1.111 µM [4]: 101%; activity at 3.333 µM [4]: 98%; activity at 10 µM [4]: 100%; activity at 30 µM [4]: 99%; efficacy in inhibiting the binding of ACE2 and Spike S1 proteins [4]: no efficacy; % Activity ([4]; 0.002 µM): 95%; % Activity ([4]; 10 µM): 95%; Gross pneumonia lesion amelioration percentage (%) [5]: 15.6%; Viability (VERO cell; 10 μM): 108.3 ± 0.4%; Viability (VERO cell; 20 μM): 99.6 ± 7.3%; cell survival (VERO cell): excellent cell survival
COc1cc(C(=O)NS(=O)(=O)c2ccccc2C)ccc1Cc1cn(C)c2ccc(NC(=O)OC3CCCC3)cc12 [Zafirlukast, cyclopentyl3-{2-methoxy-4-[(o-tolylsulfonyl)carbamoyl]benzyl}-1-methyl-1H-indol-5-ylcarbamate] | 60.1 ± 7.1% and 75.6 ± 3.9% | morphology change was small | 100% | 95% | 94% | 97% | 95% | 95% | 90% | 89% | 78% | 52% | 98% | 103% | 98% | 87% | 77% | 55% | ≥ 45% | 91% | % Activity (SARS-CoV-2 3CL protease; 0.03 µM): 99%; activity at 0.005 µM [4]: 96%; activity at 0.014 µM [4]: 92%; activity at 0.041 µM [4]: 99%; activity at 0.123 µM [4]: 97%; activity at 0.37 µM [4]: 101%; activity at 1.111 µM [4]: 93%; activity at 3.333 µM [4]: 102%; activity at 10 µM [4]: 96%; activity at 30 µM [4]: 95%; efficacy in inhibiting the binding of ACE2 and Spike S1 proteins [4]: no efficacy; % Activity ([4]; 0.005 µM): 94%; % Activity ([4]; 10 µM): 98%; amelioration effects in the gross lung lesion [1]: very excellent amelioration effects; amelioration in bilateral pneumonia, pulmonary edema, and pulmonary bleeding aspects ([1]; po): excellent amelioration; treatment effect compared to the control medicament Remdesivir ([1]; po): superior treatment effect; Viability (VERO cell; 10 μM): 109.7 ± 2.8%; Viability (VERO cell; 20 μM): 89.3 ± 0.7%; cell survival (VERO cell): excellent cell survival
